Data as given in ChEMBL document CHEMBL5108062 (J Med Chem, 2022).
pIC50: −log10 of the molar value.

Target: Dipeptidyl peptidase 4 (Homo sapiens, UniProt P27487)
Assay: Inhibition of human recombinant DPP4 using H-Gly-Pro-AMC as substrate incubated for 30 mins by fluorescence based microplate reader assay

Sequence of Dipeptidyl peptidase 4 (P27487 whole entry): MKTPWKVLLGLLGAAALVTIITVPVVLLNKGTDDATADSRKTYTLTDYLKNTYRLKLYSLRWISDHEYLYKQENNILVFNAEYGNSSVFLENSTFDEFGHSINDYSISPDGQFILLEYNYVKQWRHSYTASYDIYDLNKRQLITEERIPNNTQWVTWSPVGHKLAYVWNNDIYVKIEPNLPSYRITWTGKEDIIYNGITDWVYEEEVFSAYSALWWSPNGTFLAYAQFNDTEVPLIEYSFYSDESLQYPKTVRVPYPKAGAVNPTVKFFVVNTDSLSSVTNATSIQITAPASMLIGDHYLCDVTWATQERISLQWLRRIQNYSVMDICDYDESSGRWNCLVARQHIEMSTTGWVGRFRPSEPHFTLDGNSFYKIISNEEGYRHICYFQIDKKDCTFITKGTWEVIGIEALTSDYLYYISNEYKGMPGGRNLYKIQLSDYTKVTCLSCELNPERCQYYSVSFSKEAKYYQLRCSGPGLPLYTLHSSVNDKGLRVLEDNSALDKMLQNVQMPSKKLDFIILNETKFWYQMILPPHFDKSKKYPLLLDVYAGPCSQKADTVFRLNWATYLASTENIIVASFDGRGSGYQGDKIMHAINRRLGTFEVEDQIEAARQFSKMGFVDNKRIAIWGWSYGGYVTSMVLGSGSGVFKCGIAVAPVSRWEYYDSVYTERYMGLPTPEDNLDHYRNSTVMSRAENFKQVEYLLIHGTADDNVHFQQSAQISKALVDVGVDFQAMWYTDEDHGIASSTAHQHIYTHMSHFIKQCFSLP

pIC50: 3.49
Structure (SMILES): COc1cc(S(N)(=O)=O)ccc1OCCC(N=[N+]=[N-])C1COc2ccccc2O1 (stereo unspecified)
